Patent US4871571A, “Dietetic foodstuff containing low calorie bulking agent” (Novo Industri A/S, priority 1987, dated 1989)
Like-named read-outs stand apart in the source and are kept apart here.

Experiments:
rats [1] = details: rat, in vivo
Procedure: The control diet consisted of the following ingredients in the indicated ratios:
Four other diets were prepared by substituting for corn starch corresponding to 10% by weight of the entire control diet equal amounts respectively: of the bulking agent according to the invention; Neosugar; Polydextrose; and sucrose.
Groups comprising five rats in each group were fed with these diets, and the digestible dry matter was measured after a preliminary period of 10 days by differential gravimetric determination.

rats [2] = test: Weight increase of rats after an additional 6 weeks and digestibility calculated from it; type: in vivo; details: after an additional 6 weeks, diet with 10% of substance
Procedure: Later, after an additional 6 weeks the weight increase was measured.
The percentual weight difference, y % of the bulking agent, taking the sucrose as a control with an assumed digestibility of 100%, thus can be calculated according to the equation: [formula]
As the bulking agent is only 10% of the diet, the digestibility, x %, can be calculated according to the equation: […]
The digestibility of Polydextose and Neosugar can be calculated in a similar manner. In the following table the calculated 6 weeks digestibilities of the bulking agents are shown.

[3] = 10% w/w aqueous solution
Procedure: After given storage periods of 2,6,24 hours the percentage decomposition was measured according to the formula [formula] wherein DP2^+ is the amount of oligomers with a DP of 2 or more.

Polydextrose
Digestible dry matter of diet, mean (rats [1]): 91.8%
Digestible dry matter of the bulking agent, x % (rats [1]): 68%

OC[C@H]1O[C@@](CO)(O[C@H]2O[C@H](CO)[C@@H](O)[C@H](O)[C@H]2O)[C@@H](O)[C@@H]1O [Sucrose, sucrose]
Average weight increase (rats [2]): 220.11 g
percentage decomposition ([3]; 2 h, pH 5): 0%
percentage decomposition ([3]; 2 h, pH 6): 0%
percentage decomposition ([3]; 2 h, pH 7): 0%
percentage decomposition ([3]; 5 h, pH 2): 97.2%
percentage decomposition ([3]; 5 h, pH 3): 31.8%
percentage decomposition ([3]; 5 h, pH 4): 5.8%
percentage decomposition ([3]; 5 h, pH 5): 0%
percentage decomposition ([3]; 5 h, pH 6): 0%
percentage decomposition ([3]; 5 h, pH 7): 0%
percentage decomposition ([3]; 6 h, pH 2): 15.0%
percentage decomposition ([3]; 6 h, pH 3): 3.7%
percentage decomposition ([3]; 6 h, pH 4): 0%
percentage decomposition ([3]; 6 h, pH 5): 0%
percentage decomposition ([3]; 6 h, pH 6): 0%
percentage decomposition ([3]; 6 h, pH 7): 0%
percentage decomposition ([3]; 24 h, pH 5): 0%
percentage decomposition ([3]; 24 h, pH 6): 0%
percentage decomposition ([3]; 24 h, pH 7): 0%
percentage decomposition ([3]; 48 h, pH 2): 100%
percentage decomposition ([3]; 48 h, pH 3): 77.2%
percentage decomposition ([3]; 48 h, pH 4): 10.8%
percentage decomposition ([3]; 48 h, pH 5): 1.6%
percentage decomposition ([3]; 48 h, pH 6): 0%
percentage decomposition ([3]; 48 h, pH 7): 0%
Digestible dry matter of diet, mean (rats [1]): 94.1%
